These results are taken from patent publication US20050214938A1, “Cardiac bodies: clusters of spontaneously contracting cells for regenerating cardiac function” (priority 2004, published 2005).

Data set [1] has as its system hES-derived cardiomyocytes. Briefly: Pharmacological response: contraction rate of beating areas. In kind it is cell-based, human. As to conditions: for chronotropic effect: FIG. 5 Panels B-E. The procedure: EBs were plated on to gelatin-coated 24-well plates and allowed to differentiate, as in Example 2. Contracting cardiomyocytes at differentiation day 15-21 were used for examining pharmacological response. The frequency of the spontaneous beating was measured by counting the contraction rate of the beating areas maintained in the differentiation medium in a 37° C. heating chamber of an inverted microscope. The cells were then incubated with test compounds in the incubator for 20-30 min, and observed for contraction rate. Dose-dependent effects were determined by cumulatively applying of increasing concentrations of each substrate. Data represent the mean pulsation rate±standard error of the mean measured on 10-20 beating areas.
Differentiated cells were incubated with various concentrations of the drug and the number of beats per minute was counted. The cells were then washed with medium, maintained in differentiation medium for 24 h and observed for the time taken to recover contractility.

For data set [2], the system named is cardiomyogenic cell line from bone marrow stroma. The settings on record: treated for 24 hours; cited from earlier work.
In data set [3] the test system is hES cells of the H1 or H9 line. The procedure: hES cells of the H1 or H9 line being cultured as embryoid bodies were treated at differentiation day 1-4,4-6 or 6-8 with 5-aza-deoxy-cytidine, a cytosine analog that affects DNA methylation, thereby activating gene expression. Cells were harvested at day 15, and analyzed for cardiac α-MHC by real-time RT-PCR.
The RT-PCR assay from Example 3 was adapted for the Taqman™ 7700 sequence detection system using the same primers, amplifying for 40 cycles at 95° C. for 15 sec and 60° C. for 1 min. 18S ribosomal RNA was amplified for a control using a kit for Taqman™ ribosomal RNA control reagents (Applied Biosystems). Reactions were analyzed by ABI Prism™ 7700 Sequence Detection system.
Other reagents examined for an ability to induce cardiomyocyte differentiation included dimethyl sulfoxide (DMSO) and all-trans retinoic acid (RA).
Retinoic acid was applied to differentiating hES cultures at doses between 10^−9 and 10^−[…].

The subject of a further data set is mouse ES cells. As to conditions: Wobus et al. 1997; cited from earlier work.
Another data set has as its system hES cells of the H7 line. Briefly: Direct differentiation paradigm without embryoid body stage. In kind it is cell-based, human. The settings on record: 10 μM at day 10-12 or 12-14. How it is done: Cardiomyocyte differentiation was also achieved in a direct differentiation paradigm. Undifferentiated hES cells of the H7 line were dissociated and plated directly onto gelatin-coated plates without going through an embryoid body stage. The plated cells were cultured in differentiation medium (80% KO-DMEM, 1 mM L-glutamine, 0.1 mM p-mercaptoethanol, 1% amino acids, and 20% fetal bovine serum). Contracting cardiomyocytes were found at day 18 in cultures treated with 10 μM 5-aza-deoxy-cytidine at day 10-12 or 12-14, and at later times in all cultures.

SMILES strings stand for the structures.

For `CC(C)(C)NCC(O)c1cc(Cl)c(N)c(Cl)c1` (centres unmarked) [clenbuterol], the “beating rate after treatment” value in data set [1] (cells taken at Day 72, 1-10 nM, from about 72 beats/min, p<0.005) is given as “about 98 beats/min”. As for `CNC[C@H](O)c1cccc(O)c1` [phenylephrine], in data set [1], the chronotropic effect entry was “positive chronotropic effects”. For `CC(C)NCC(O)c1ccc(O)c(O)c1` (centres unmarked) [isoprenaline], in data set [1], the chronotropic effect entry is reported as “positive chronotropic effects”.

Turning to `Nc1ncn([C@@H]2O[C@H](CO)[C@@H](O)[C@H]2O)c(=O)n1` [5-azacytidine], the “cells forming myotube-like structures, acquiring cardiomyocyte markers and beginning to beat” value in data set [2] was 30%. For the compound `C[S+](C)[O-]` [DMSO, dimethyl sulfoxide], the “toxicity to the cells” value in data set [3] is on record as “toxic”. Besides, the “beating areas compared with non-treated cultures” value in data set [3] (0.5%, days 0-4) is “fewer beating areas”. In addition, in data set [3] (0.8% or 1%), the beating cells result is recorded as “absent”. The “α-MHC expression compared with untreated cultures” value in data set [3] (DMSO treatment) was “significant reduction”. Consider `CC1=C(/C=C/C(C)=C/C=C/C(C)=C/C(=O)O)C(C)(C)CCC1` [RA, all-trans retinoic acid], for which the “beating cells compared with untreated cultures” value in data set [3] (days 4-8, 8-15, or 4-15, doses between 10^−9 and 10^−5 μM) is listed as “no increase”. Besides, the “effect on cardiac differentiation” value in the data set on mouse ES cells was “accelerates ES cell-derived cardiac differentiation”. As for `Nc1ncn([C@H]2C[C@H](O)[C@@H](CO)O2)c(=O)n1` [5-aza-deoxy-cytidine], the “expression of cardiac α-MHC” value in data set [3] (1 to 10 μM at day 6-8, harvested day 15) was “significantly increased”. The “day at which contracting cardiomyocytes were found” value in the data set on hES cells of the H7 line is 18 days.

For `COc1ccc([C@@H]2Sc3ccccc3N(CCN(C)C)C(=O)[C@@H]2OC(C)=O)cc1` [diltiazem], the “beating areas that stopped contraction” value in data set [1] (10^−5 M) is recorded as 100%. In addition, the “inhibition of beating rate” value in data set [1] (differentiation day 15-21, 20-30 min incubation, increasing concentrations) is “concentration-dependent manner”.
